# Laboratory results from patent publication US20170166558A1, “O-GLCNAC TRANSFERASE (OGT) INHIBITORS AND USES THEREOF” (President and Fellows of Harvard College, priority 2014, published 2017).
# Target: T1, sOGT (Homo sapiens, UniProt O15294)
# T1 sequence (O15294 1-665 isoform O15294-4): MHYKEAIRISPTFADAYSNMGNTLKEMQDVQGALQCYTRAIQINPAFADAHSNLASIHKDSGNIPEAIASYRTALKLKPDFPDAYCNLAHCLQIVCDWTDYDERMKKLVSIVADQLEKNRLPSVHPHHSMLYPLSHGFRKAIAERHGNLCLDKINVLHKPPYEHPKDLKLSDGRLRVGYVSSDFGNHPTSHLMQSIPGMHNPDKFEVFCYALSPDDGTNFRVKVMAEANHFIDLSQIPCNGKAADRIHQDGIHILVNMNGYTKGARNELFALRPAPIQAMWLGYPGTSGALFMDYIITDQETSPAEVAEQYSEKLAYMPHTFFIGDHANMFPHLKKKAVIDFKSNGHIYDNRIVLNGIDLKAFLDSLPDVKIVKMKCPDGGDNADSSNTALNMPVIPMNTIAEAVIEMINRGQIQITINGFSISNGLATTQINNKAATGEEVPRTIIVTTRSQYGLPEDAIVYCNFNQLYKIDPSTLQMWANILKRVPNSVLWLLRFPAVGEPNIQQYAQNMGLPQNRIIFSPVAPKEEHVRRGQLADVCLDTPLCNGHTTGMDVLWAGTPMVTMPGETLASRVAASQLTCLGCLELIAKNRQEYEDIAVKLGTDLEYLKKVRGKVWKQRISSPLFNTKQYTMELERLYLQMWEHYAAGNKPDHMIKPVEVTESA
# Test: Fluorescence polarization displacement screen with fluorescein-linked UDP-GlcNAc analog
# Type: binding
# Details: 100 μM treatment
row,Structure (SMILES),% OGT activity (100 μM treatment)
1,O=C([C@@H](NS(=O)(=O)c1ccc2[nH]c(=O)[nH]c(=O)c2c1)c1ccccc1)N(Cc1ccco1)Cc1cccs1,No inhibition
2,O=C(NCc1cccs1)[C@H](NS(=O)(=O)c1ccc2[nH]c(=O)ccc2c1)c1ccccc1,No inhibition
3,O=C(C1c2ccccc2CN1S(=O)(=O)c1ccc2[nH]c(=O)ccc2c1)N(Cc1ccco1)Cc1cccs1 (stereo not shown) [drawing 114],43%
4,O=C(C1c2ccccc2CCN1S(=O)(=O)c1ccc2[nH]c(=O)ccc2c1)N(Cc1ccco1)Cc1cccs1 (stereo not shown) [drawing 115],65%
5,O=C(C(NS(=O)(=O)c1ccc2[nH]c(=O)ccc2c1)c1ccccc1C(F)(F)F)N(Cc1ccco1)Cc1cccs1 (stereo not shown) [drawing 119],0.7%

# Same assay, conditions: 100 μM treatment; read-out: % OGT activity (100 μM treatment)
row,Structure (SMILES),remaining activity at 100 µM [%]
1,O=C([C@H](NS(=O)(=O)c1ccc2[nH]c(=O)ccc2c1)c1ccc(O)cc1)N(Cc1ccco1)Cc1cccs1,0.7
2,O=C([C@H](NS(=O)(=O)c1ccc2[nH]c(=O)[nH]c(=O)c2c1)c1ccccc1)N(Cc1ccco1)Cc1cccs1,68
3,O=C([C@H](NS(=O)(=O)c1ccc2[nH]c(=O)ccc2c1)c1ccc(F)cc1)N(Cc1ccco1)Cc1cccs1,5
4,O=C([C@H](NS(=O)(=O)c1ccc2[nH]c(=O)ccc2c1)c1ccc(Cl)cc1)N(Cc1ccco1)Cc1cccs1,22
5,O=C([C@H](NS(=O)(=O)c1ccc2[nH]c(=O)ccc2c1)C1CCCCC1)N(Cc1ccco1)Cc1cccs1,22
6,O=C([C@H](NS(=O)(=O)c1ccc2[nH]c(=O)ccc2c1)c1ccccc1Cl)N(Cc1ccco1)Cc1cccs1,4
7,O=C([C@H](NS(=O)(=O)c1ccc2[nH]c(=O)ccc2c1)c1cccs1)N(Cc1ccco1)Cc1cccs1,7
8,COc1ccc([C@@H](NS(=O)(=O)c2ccc3[nH]c(=O)ccc3c2)C(=O)N(Cc2ccco2)Cc2cccs2)cc1,2.9
9,O=C([C@H](NS(=O)(=O)c1ccc2[nH]c(=O)ccc2c1)c1cccc(F)c1)N(Cc1ccco1)Cc1cccs1,2.6
10,O=C([C@@H](NS(=O)(=O)c1ccc2[nH]c(=O)ccc2c1)c1ccc(F)cc1)N(Cc1ccco1)Cc1cccs1,0.9
11,CN1CCN(C(=O)[C@H](NS(=O)(=O)c2ccc3[nH]c(=O)ccc3c2)c2ccccc2)CC1,47
12,CN(Cc1cccs1)C(=O)[C@H](NS(=O)(=O)c1ccc2[nH]c(=O)ccc2c1)c1ccccc1,2.5
13,O=C([C@H](NS(=O)(=O)c1ccc2[nH]c(=O)ccc2c1)c1ccccc1)N1CCOCC1,47
14,CCNC(=O)[C@H](NS(=O)(=O)c1ccc2[nH]c(=O)ccc2c1)c1ccccc1,26
15,COc1cccc([C@@H](NS(=O)(=O)c2ccc3[nH]c(=O)ccc3c2)C(=O)N(Cc2ccco2)Cc2cccs2)c1,2.5
16,O=C(NCc1ccco1)[C@H](NS(=O)(=O)c1ccc2[nH]c(=O)ccc2c1)c1ccccc1,64
17,CN(Cc1ccco1)C(=O)[C@H](NS(=O)(=O)c1ccc2[nH]c(=O)ccc2c1)c1ccccc1,5
18,O=C([C@H](NS(=O)(=O)c1ccc2[nH]c(=O)ccc2c1)c1ccccc1)N1CCCCC1,22
19,CCCC[C@@H](NS(=O)(=O)c1ccc2[nH]c(=O)ccc2c1)C(=O)N(Cc1ccco1)Cc1cccs1,8
20,O=C(C1c2ccccc2CN1S(=O)(=O)c1ccc2[nH]c(=O)ccc2c1)N(Cc1ccco1)Cc1cccs1 (stereo not shown) [drawing 109],56
21,O=C(C1c2ccccc2CCN1S(=O)(=O)c1ccc2[nH]c(=O)ccc2c1)N(Cc1ccco1)Cc1cccs1 (stereo not shown) [drawing 110],47

# Same assay, conditions: read-out: % OGT activity (100 μM treatment)
row,Structure (SMILES),remaining activity at 100 µM [%]
1,O=C([C@@H](NS(=O)(=O)c1ccc2[nH]c(=O)ccc2c1)c1ccccc1)N(Cc1ccco1)Cc1cccs1,7
2,O=C([C@H](NS(=O)(=O)c1ccc2[nH]c(=O)ccc2c1)c1ccccc1)N(Cc1ccco1)Cc1cccs1,1.73
